Measured values published in ChEMBL document CHEMBL5614408, “Indole-core inhibitors of influenza a neuraminidase: iterative medicinal chemistry and molecular modeling” (Eur J Med Chem, 2024).
Activity calls are given as the source filed them. The calls are words filed in the database; no cut-off is given here.

Experiments:
[1] = molecular target: Neuraminidase (Influenza A virus (A/Puerto Rico/8/1934(H1N1)), UniProt P03468); test: Inhibition of Influenza A virus A/Puerto Rico/8/34 (H1N1) neuraminidase assessed as reduction in neuraminidase activity by chemiluminescence based assay
Chain of Neuraminidase (Influenza A virus (A/Puerto Rico/8/1934(H1N1)), UniProt P03468) (P03468 whole entry): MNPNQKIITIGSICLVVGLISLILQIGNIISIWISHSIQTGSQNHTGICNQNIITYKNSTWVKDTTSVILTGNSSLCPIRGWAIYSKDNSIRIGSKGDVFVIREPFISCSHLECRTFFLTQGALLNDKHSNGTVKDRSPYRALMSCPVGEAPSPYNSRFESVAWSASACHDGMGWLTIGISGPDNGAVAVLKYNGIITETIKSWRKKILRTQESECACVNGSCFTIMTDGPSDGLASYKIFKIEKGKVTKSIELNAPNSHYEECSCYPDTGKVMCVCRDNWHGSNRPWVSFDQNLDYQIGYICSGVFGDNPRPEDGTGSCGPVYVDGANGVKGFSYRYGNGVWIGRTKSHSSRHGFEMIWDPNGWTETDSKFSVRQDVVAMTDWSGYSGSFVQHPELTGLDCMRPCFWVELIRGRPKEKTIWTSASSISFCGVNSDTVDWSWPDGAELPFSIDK

Influenza A virus [2] = test: Antiviral activity against influenza A virus A/California/04/2009 (H1N1) infected in female BALB/c mouse model assessed as inhibition of viral replication in lungs at 50 mg/kg, po pretreated for 4 hrs followed by twice daily compound administration 4 hrs post viral infection and measured on day 4 post infection; type: functional, organism-based; conditions: time 4.0 day
MDCK = test: (§1) Cytotoxicity against MDCK cells assessed as inhibition of cell growth incubated for 48 hrs by MTS assay; type: toxicity, cell-based, Canis lupus familiaris; conditions: dog, mdck, 48 h
Influenza A virus [3] = test: Antiviral activity against Influenza A virus A/Puerto Rico/8/34 (H1N1) infected in MDCK cells assessed as inhibition of viral infection preincubated with cells for 1 hrs followed by viral infection and measured after 48 hrs by hemagglutination assay; type: functional, organism-based
[4] = Selectivity index, ratio of CC50 for cytotoxicity against MDCK cells to IC50 for antiviral activity against Influenza A virus A/Puerto Rico/8/34 (H1N1) infected in MDCK cells; type: toxicity, cell-based; conditions: dog, read-out: Ratio CC50/IC50
Influenza A virus [5] = test: (§2) Antiviral activity against influenza A virus A/California/04/2009 (H1N1) infected in female BALB/c mouse model assessed as survival rate at 50 mg/kg, po pretreated for 4 hrs followed by twice daily compound administration 4 hrs post viral infection and measured on day 11 post infection relative to control; type: functional; conditions: 264 h, time 11 day
Influenza A virus [6] = test: as §2, with “reduction in body weight loss” for “survival rate”, “20” for “50”, “infection” for “infection relative to control”; type: functional, organism-based; conditions: time 11.0 day
Influenza A virus [7] = test: as §2, with “20” for “50”; type: functional; conditions: 264 h, time 11 day
[8] = as §1; type: toxicity, cell-based, Canis lupus familiaris; conditions: dog, MDCK cells

Compound | IC50 [1] | also measured
COc1ccc(N/C=C2\C(=O)c3cc(OC)ccc3N2C(C)=O)cc1 | 1.7 µM | –
CCC(=O)N1/C(=C/Nc2ccc(F)c(F)c2)C(=O)c2ccccc21 | 0.3 µM | –
CC(=O)N1/C(=C/Nc2cccc(F)c2)C(=O)c2cccnc21 | 1.42 µM | –
CC(=O)N1/C(=C/Nc2cc(F)cc(F)c2)C(=O)c2ccccc21 | 0.53 µM | –
COc1ccc(N/C=C2\C(=O)c3cc(Cl)ccc3N2C(C)=O)cc1 | 5.43 µM | –
CCC(=O)N1/C(=C/Nc2ccc(OC)cc2)C(=O)c2ccccc21 | 0.73 µM | –
CC(=O)N1/C(=C/Nc2ccc(Cl)cc2)C(=O)c2ccccc21 | 1.39 µM | –
COc1ccc(N/C=C2/Nc3ccccc3C2=O)cc1 | 3.01 µM | –
CC(=O)N1/C(=C/Nc2ccccc2)C(=O)c2ccccc21 | 0.37 µM | –
CC(=O)N1/C(=C/Nc2cc(F)c(F)c(F)c2)C(=O)c2ccccc21 | 1 µM | –
COc1cccc(N/C=C2\C(=O)c3ccccc3N2C(C)=O)c1 | 0.37 µM | –
COc1cc(N/C=C2\C(=O)c3ccccc3N2C(C)=O)cc(OC)c1OC | 2.71 µM | –
COc1ccc(OC)c(N/C=C2\C(=O)c3ccccc3N2C(C)=O)c1 | 0.99 µM | –
CC(=O)N1/C(=C/Nc2cccc(OC(F)(F)F)c2)C(=O)c2ccccc21 | 0.2 µM | Activity (Influenza A virus [2]): Active; CC50 (MDCK): 105 µM; IC50 (Influenza A virus [3]): 3 µM; selectivity ratio [4]: 35; survival at 50 mg/kg (Influenza A virus [5]): 30%; Activity (Influenza A virus [6]): Active
CCOC(=O)c1cccc(N/C=C2\C(=O)c3cc(OC)ccc3N2C(C)=O)c1 | 1.33 µM | –
CC(=O)N1/C(=C/Nc2ccccn2)C(=O)c2ccccc21 | 1.19 µM | –
CC(=O)N1/C(=C/Nc2ccc(F)cc2)C(=O)c2ccccc21 | 0.34 µM | –
CCCCOc1ccc(N/C=C2\C(=O)c3ccccc3N2C(C)=O)cc1 | 0.42 µM | –
COc1ccc(N/C=C2\C(=O)c3ccccc3N2C(C)=O)cc1 | 0.1 µM | CC50 (MDCK): 1810 µM; IC50 (Influenza A virus [3]): 12 µM; selectivity ratio [4]: 151
COc1ccc(N/C=C2\C(=O)c3ccccc3N2C)cc1 | 1 µM | –
COc1ccccc1N/C=C1\C(=O)c2ccccc2N1C(C)=O | 1.08 µM | –
CC(=O)N1/C(=C/Nc2ccc(Cc3ccccc3)cc2)C(=O)c2ccccc21 | 0.1 µM | CC50 (MDCK): 1740 µM; IC50 (Influenza A virus [3]): 111 µM; selectivity ratio [4]: 16
CC(=O)N1/C(=C/Nc2ccc(OC(F)(F)F)cc2)C(=O)c2ccccc21 | 5.13 µM | –
CC(=O)N1/C(=C/Nc2ccc(F)c(F)c2)C(=O)c2ccccc21 | 0.47 µM | –

Compound | IC50 [1] | also measured
COc1ccc(N/C=C2\C(=O)c3ccccc3N2C(C)=O)cc1OC | 25.2 µM | –
CC(=O)N1/C(=C/NCc2ccc(F)c(F)c2)C(=O)c2ccccc21 | 11.1 µM | –
O=C1/C(=C\Nc2ccccc2)Nc2ccccc21 | 5.36 µM | –
COc1ccc(N/C=C2\C(=O)c3cccnc3N2C(C)=O)cc1 | 2 µM | –
CCOC(=O)C1=C[C@@H](OC(CC)CC)[C@H](NC(C)=O)[C@@H](N)C1 [OSELTAMIVIR] | – | survival at 20 mg/kg (Influenza A virus [7]): 50%
CCC(=O)N1/C(=C/Nc2ccc(F)cc2)C(=O)c2ccccc21 | 0.43 µM | –
CC(=O)N1/C(=C/Nc2ccc(Nc3ccccc3)cc2)C(=O)c2ccccc21 | 0.76 µM | –
O=C1/C(=C\Nc2ccc(Cl)cc2)Nc2ccccc21 | 1.85 µM | –
CC(=O)N1/C(=C/Nc2ccc(C(F)(F)F)cc2)C(=O)c2ccccc21 | 0.77 µM | –
CCOc1ccc(N/C=C2\C(=O)c3ccccc3N2C(C)=O)cc1 | 0.62 µM | –
O=C1/C(=C\NCc2ccccc2)Nc2ccccc21 | 12.9 µM | –
CC(=O)N1/C(=C/Nc2cccc(C(F)(F)F)c2)C(=O)c2ccccc21 | 0.96 µM | –
CC(=O)N1/C(=C/Nc2ccncc2)C(=O)c2ccccc21 | 1.08 µM | –
CCOC(=O)c1cccc(N/C=C2\C(=O)c3ccccc3N2C(C)=O)c1 | 0.28 µM | –
CCOC(=O)c1cccc(N/C=C2\C(=O)c3cc(Cl)ccc3N2C(C)=O)c1 | 2.03 µM | –
CC(=O)N1/C(=C/Nc2cccc(Cc3ccccc3)c2)C(=O)c2ccccc21 | 0.2 µM | –
CC(=O)N1/C(=C/Nc2cccc(F)c2)C(=O)c2ccccc21 | 0.03 µM | Activity (Influenza A virus [2]): Active; CC50 (MDCK): 1480 µM; IC50 (Influenza A virus [3]): 33.8 µM; selectivity ratio [4]: 44; survival at 50 mg/kg (Influenza A virus [5]): 30%; Activity (Influenza A virus [6]): Active
CC(=O)N1/C(=C/Nc2cccc(S(N)(=O)=O)c2)C(=O)c2ccccc21 | 0.64 µM | –
CC(=O)N1/C(=C/Nc2cccc(F)c2F)C(=O)c2ccccc21 | 0.95 µM | –
CCOC(=O)c1cccc(N/C=C2\C(=O)c3cccnc3N2C(C)=O)c1 | 9.84 µM | –
CC(=O)N1/C(=C/Nc2ccccc2C(F)(F)F)C(=O)c2ccccc21 | 0.58 µM | –
CC(=O)N1/C(=C/Nc2cccc(Oc3ccccc3)c2)C(=O)c2cccnc21 | – | CC50 at 48 h [8]: 540 µM; IC50 (Influenza A virus [3]): 120 µM; selectivity ratio [4]: 5
CCC(=O)N1/C(=C/Nc2cccc(F)c2)C(=O)c2ccccc21 | 0.23 µM | CC50 (MDCK): 95 µM; IC50 (Influenza A virus [3]): 11.3 µM; selectivity ratio [4]: 8
CC(=O)N1/C(=C/Nc2cccc(Oc3ccccc3)c2)C(=O)c2ccccc21 | 0.5 µM | –
